We go through eleven molecules from patent US10166241B2, “Combination Therapy III” (TURUN YLIOPISTO, priority 2012, dated 2019).

Assay [1] relates to T98G glioblastoma cells. As to the kind of experiment: Apoptosis assay by sub-G0/G1 fraction estimation (apoptotic nuclear fragmentation). Particulars: T98G cells transfected with PME-1 specific dsRNA (so in the source). It counts as cell-based, human. On the procedure: Apoptosis Assay by Sub-G0/G1 Fraction Estimation: […] After 24 hrs of treatment, both floating and adherent cells were harvested by centrifugation. […] The flow cytometric analysis of PI stained nuclei was performed and the recorded data was analyzed using a FACScan flow cytometer and software (Becton Dickinson) respectively. […] The treatments were given 48 hrs after transfection. Following 24 hrs of drug treatment the cells were lysed in hypotonic buffer, and their nuclei were stained with propidium iodide. The stained cell lysates were analysed to estimate the sub-G0/G1 fraction of fragmented nuclei by flow cytometry (FACS) (FIG. 1B).

Assay [2] deals with U87MG-luciferase glioblastoma cells. Briefly: Colony formation assay in U87MG-luciferase cells. It is filed as cell-based. As to conditions: HDAC4 siRNA 48 hrs, then drug 48 hrs (combination). The source says:
(§1) Cells plated in very low density (4-6×10^3) in 6-well plates were allowed to grow for about 7 days until they form small colonies. These cells were then transfected with Scrambled or HDAC4 siRNA using Lipofectamine RNAiMAX reagent (Invitrogen) according to the manufacturer's instructions. After 48 hrs, treatments were given with indicated concentration of chemical drugs for another 48 hrs. Cell colonies were washed with PBS, fixed with 3.7% formaldehyde and stained with 0.2% crystal violet solution (made in 10% ethanol) for 15 minutes at room temperature each. Excess stain was removed by repeated washings with PBS. Plates were dried and pictures were taken with Epson perfection V700 scanner and analysed with ImageJ.
(§2) The efficacy of the selected potent drugs was then tested by colony formation assay in […] T98G, and highly-tumorigenic U87MG-luciferase (luciferase expressing U87MG cells) glioblastoma cell lines. For this experiment, the cells were grown in 6-well plates in low density until the formation of small colonies which were then transfected with Scrambled or HDAC4 specific siRNA for 48 hrs followed by treatment with STS, PKC412, K252a, UCN-01 and CEP-701 at the indicated concentrations for another 48 hrs.

Assay [3] has as its system T98G glioblastoma cells. Briefly: Colony formation assay in T98G cells. It counts as cell-based, human.
Excerpt: as §1, §2

Where [4] appears, read: HDAC4.2 siRNA transfected cells treated with drug.

As for `O=C1NC(=O)c2c1c1c3ccccc3[nH]c1c1[nH]c3ccccc3c21` [Arcyriaflavin A, 12,13-Dihydro-5H-indolo [2,3-a] pyrrolo[3,4-c] carbazole-5,7(6H)-dione], in assay [1] (drug 5 μM), the “Potentiation % (Scale)” value is “− ((−) 0-20%)” and the “Potentiation % (amount of apoptotic nuclear fragmentation)” value is on record as 5-10%.

For the molecule `C[C@]12O[C@H](C[C@]1(O)CO)n1c3ccccc3c3c4c(c5c6ccccc6n2c5c31)CNC4=O` [CEP-701, (9S,10S,12R)-2,3,9,10,11,12-Hexahydro-10-hydroxy-10-(hydroxyme-thyl)-9-methyl-9,12-epoxy-1H-diindolo [1,2,3-fg:3′,2′,1′-kl] pyrrolo[3,4-i][1, 6] benzo di-azocin-1-one], the colony growth entry in assay [2] is recorded as “less effective”. In assay [1] (drug 3.5 μM), the “Potentiation % (Scale)” value is given as “++ ((++) 40-60%)” and the “Potentiation % (amount of apoptotic nuclear fragmentation)” value is recorded as 40-50%. Moreover, in assay [1] (drug 5 μM), the “Potentiation % (Scale)” value is recorded as “+++ ((+++) 60-80%)” and the “Potentiation % (amount of apoptotic nuclear fragmentation)” value was 70-80%.

Turning to `Cn1cc(C2=C(c3cn(C4CCN(Cc5ccccn5)CC4)c4ccccc34)C(=O)NC2=O)c2ccccc21` [Enzastaurin, 3-(1-Methyl-1H-indol-3-yl)-4-(1-(1-(2-pyridinylme-thyl)-4-piperidinyl)-1H-indol-3-yl)-1H-pyrrole-2,5-dione], in assay [1] (drug 5 μM), the “Potentiation % (Scale)” value is listed as “− ((−) 0-20%)” and the “Potentiation % (amount of apoptotic nuclear fragmentation)” value is reported as 10-20%.

As to `Cn1c2ccccc2c2c3c(c4c5ccccc5n(CCC#N)c4c21)CNC3=O` [GÖ-6976, 12-(2-Cyanoethyl)-6,7,12,13-tetrahydro-13-methyl-5-oxo-5H-indolo[2,3-a]pyrrolo[3,4-c]carbazole], in assay [1] (drug 5 μM), the “Potentiation % (Scale)” value is listed as “− ((−) 0-20%)” and the “Potentiation % (amount of apoptotic nuclear fragmentation)” value was 10-20%.

Take `COC(=O)[C@@]1(O)C[C@H]2O[C@]1(C)n1c3ccccc3c3c4c(c5c6ccccc6n2c5c31)C(=O)NC4` [K252a, (9S,10R,12R)-2,3,9,10,11,12-Hexahydro-10-hydroxy-9-methyl-1-oxo-9,12-epoxy-1H-diindolo [1,2,3-fg:3′,2′,1′-kl] pyrrolo[3,4-i][1,6] benzodi-azocine-10-carboxylic acid methyl ester]: the colony growth entry in assay [2] is reported as “very potent in reducing the colony growth”; in assay [3] (HDAC4 siRNA 48 hrs, then drug 48 hrs (combination)) it was “very potent in reducing the colony growth”; in assay [3] (setting [4]), “reduction in the colony growth”. In addition, the entries for the “Potentiation % (Scale)” value in assay [1] (drug 3.5 μM) and in assay [1] (drug 5 μM) were “++ ((++) 40-60%)” and “++++ ((++++) 80-100%)”, respectively. The “Potentiation % (amount of apoptotic nuclear fragmentation)” value in assay [1] (drug 3.5 μM) is 50-60%; in assay [1] (drug 5 μM), 80-90%.

For the molecule `O=C1NCc2c1c1c3ccccc3[nH]c1c1[nH]c3ccccc3c21` [K252c, 6,7,12,13-Tetrahydro-5H-indolo[2,3-a]pyrrolo[3,4-c] carbazol-5-one], in assay [1] (drug 5 μM), the “Potentiation % (Scale)” value is reported as “− ((−) 0-20%)” and the “Potentiation % (amount of apoptotic nuclear fragmentation)” value is given as 10-20%.

With `CO[C@@H]1[C@H](N(C)C(=O)c2ccccc2)C[C@H]2O[C@@H]1n1c3ccccc3c3c4c(c5c6ccccc6n2c5c31)C(=O)NC4` [PKC412, [9S-(9α,10β,11β, 13α)]-N-(2,3,10, 11,12,13-Hexahydro-10-methoxy-9-methyl-1-oxo-9,13-epoxy-1 H,9H-diindolo [1,2,3-gh:3′,2′,1′-lm]pyrrolo [3,4-j][1,7]benzodiazonin-11-yl)-N-methyl ben-zamide], the colony growth result in assay [3] (setting [4]) was “reduction in the colony growth”. Further, in assay [1] (drug 5 μM), the “Potentiation % (Scale)” value is listed as “++ ((++) 40-60%)” and the “Potentiation % (amount of apoptotic nuclear fragmentation)” value is given as 50-60%.

As to `COC1C(CO)OC(n2c3c(Cl)cccc3c3c4c(c5c6cccc(Cl)c6[nH]c5c32)C(=O)NC4=O)C(O)C1O` (stereo not drawn) [Rebeccamycin, 5h-indolo(2,3-a)pyrrolo(3,4-c)carbazole-5,7(6h)-dione,1,11-dichloro-12,13-dihy;dro-12-(4-o-methyl-beta-d-glucopyra-nosyl)], in assay [1] (drug 5 μM), the “Potentiation % (Scale)” value is “− ((−) 0-20%)” and the “Potentiation % (amount of apoptotic nuclear fragmentation)” value is 5-10%.

Turning to `O=C1NC(=O)c2c1c1c3ccccc3n3c1c1c2c2ccccc2n1C1CCC3O1` [SB-218078, 9,10,11,12-Tetrahydro-9,12-epoxy-1H-diindolo [1,2.3-fg:3′,2′,1′-kl] pyrrolo [3,4-i][1,6] benzodi-azocine-1,3(2H)-dione], in assay [1] (drug 5 μM), the “Potentiation % (Scale)” value is “+ ((+) 20-40%)” and the “Potentiation % (amount of apoptotic nuclear fragmentation)” value is recorded as 20-30%.

On to `CN[C@@H]1C[C@H]2O[C@@](C)([C@@H]1OC)n1c3ccccc3c3c4c(c5c6ccccc6n2c5c31)C(=O)NC4` [Staurosporine, [9S-(9α,10β,11β, 13α)]-2,3,10,11, 12,13-Hexa-hydro-10-methoxy-9-methyl-11-(methylamino)-9,13-epoxy-1H,9H-diindolo [1,2,3-gh:3′,2′,1′-lm] pyrrolo [3,4-j][1,7] benzo diazonin-1-one], for which the colony growth entry in assay [3] (setting [4]) was “reduction in the colony growth”. Also, in assay [1] (drug 50 nM), the “Potentiation % (Scale)” value is “+ ((+) 20-40%)” and the “Potentiation % (amount of apoptotic nuclear fragmentation)” value is reported as 30-40%.

`CN[C@@H]1C[C@H]2O[C@@](C)([C@@H]1OC)n1c3ccccc3c3c4c(c5c6ccccc6n2c5c31)C(=O)N[C@H]4O` [UCN-01, (9S)-2,3,10,11,12,13-Hexahydro-3α-hydroxy-10α-methoxy-9-methyl-11α-methyl amino-9β,13β-epoxy-1H,9H-diindolo [1,2,3-gh:3′,2′,1′-lm] pyrrolo [3,4-j][1,7] benzo diazonin-1-one]: the “Potentiation % (Scale)” value in assay [1] (drug 1.5 μM) is listed as “+ ((+) 20-40%)”; in assay [1] (drug 2.5 μM), “+++ ((+++) 60-80%)”. Further, the “Potentiation % (amount of apoptotic nuclear fragmentation)” value in assay [1] (drug 1.5 μM) is reported as 20-30%; in assay [1] (drug 2.5 μM), 70-80%.
